Experimental data taken from article PMC7914775, “Molecules Present in Plant Essential Oils for Prevention and Treatment of Colorectal Cancer (CRC)” (Molecules, 2021).
Read-outs that look alike come from different tables or passages of the source.

Legend:
NCM-460 cell line = experiment: cells; settings: for concentration affecting cell viability: NCM-460, after 24 h
Protocol: (§1) Briefly, cells were firstly seeded, in triplicate, into 96-well culture plates at 10^4 cells/well. […] Ethanol 99.5% was used to solubilize essential oils. The final concentration of ethanol in the cell medium was kept lower than 0.1%. Ethanol 0.1% was added to the control (untreated) cells.
(§2) The cytotoxicity of the essential oil single components was evaluated by MTT assay on 96-well plates. After 24, 48 and 72 h, MTT (dissolved in PBS) was diluted with fresh medium at final concentration of 0.5 mg/mL, added to cell culture and incubated at 37 °C. After 4 h, the medium was removed and 100 μL of DMSO was added. After 1 h at room temperature, the purple formazan crystals were dissolved, and the plates were read in a microplate reader (Victor3™, Perkin Elmer, Waltham, MA, USA). Absorbance was measured at 595 nm. Cell growth inhibition rate was calculated as a percentage of treated cells on control ones.

Caco-2 cell line = experiment: cells; parameters: effect on cell growth, MTT: dose or concentration left out as unconfirmed; settings: for IC50: Caco-2, MTT
Protocol: as §1, §2

SW-620 cell line = experiment: MTT cell viability assay, SW-620; settings: for IC50: SW-620, MTT
Protocol: Briefly, cells were firstly seeded, in triplicate, into 96-well culture plates at 10^4 cells/well. […] The final concentration of ethanol in the cell medium was kept lower than 0.1%. Ethanol 0.1% was added to the control (untreated) cells.
as §2

SW-620 cells [1] = experiment: Cell cycle analysis (propidium iodide, flow cytometry), SW-620; assay type: cell-based, human; settings: SW-620, 72 h; 75 µM cinnamaldehyde, 800 µM eugenol; vs control
Protocol: (§3) Cell cycle analysis and apoptosis detection assay were only performed in cell treated with cinnamaldehyde and eugenol, at dosages that were not found toxic on the NCM-460 cell line. Briefly, 100,000 cells were seeded into 6-well cultured plates and allowed to attach for 24 h. After that, cells were treated for 72 h as previously described. Then, the cells were collected for the cell cycle analysis, washed twice with PBS, fixed with 70% ethanol, and incubated at −20 °C overnight. Then, the cells were washed with 500 µL of PBS, centrifuged at 1500 rpm for 5 min, resuspended in 500 μL of PBS containing 50 μg/mL RNase A and incubated for 30 min at room temperature. Cells were then centrifuged at 1500 rpm for 5 min, resuspended in PBS, and 10 µg/mL of Propidium iodide was added. Detection of apoptotic cells was performed with Annexin V/Propidium iodide detection kit, following the manufacturer’s instructions (Bender Medsystems, Wien, Austria). Cells were analyzed by flow cytometry (FACS) (Cytoflex, Beckman Coulter, CA, USA).

Caco-2 cells [2] = experiment: Cell cycle analysis (propidium iodide, flow cytometry), Caco-2; assay type: cell-based, human; settings: Caco-2, 72 h; 75 µM cinnamaldehyde, 800 µM eugenol; vs control
Protocol: as §3

NCM-460 cells [3] = experiment: Cell cycle analysis (propidium iodide, flow cytometry), NCM-460; assay type: cell-based, human; settings: NCM-460, 72 h; 75 µM cinnamaldehyde, 800 µM eugenol; vs control
Protocol: as §3

Caco-2 cells [4] = experiment: in vitro; assay type: cell-based, human; settings: for cell death, Annexin V/PI: Caco-2, 72 h, 800 µM eugenol, 75 µM cinnamaldehyde
Protocol: as §3

SW-620 cells [5] = experiment: in vitro; assay type: cell-based, human; settings: for Q2-UL cells (upper left quadrant, necrosis): SW620, 72 h, eugenol 800 µM (E800), cinnamaldehyde 75 µM (A75); for cell death, Annexin V/PI: SW-620, 72 h, 800 µM eugenol, 75 µM cinnamaldehyde
Protocol: as §3

NCM-460 cells [6] = experiment: in vitro; assay type: cell-based, human; settings: NCM-460, 72 h; 800 µM eugenol, 75 µM cinnamaldehyde
Protocol: as §3

in vitro = assay type: cell-based, human; settings: human, eugenol 800 µM (E800), cinnamaldehyde 75 µM (A75), read-out: Q2-LL cells (lower left, viable, AnnexinV −/PI −)
Protocol: as §3

Caco-2 cells [7] = settings: viability of Caco-2 cells; cited from earlier work
[8] = Homo sapiens, SW-620, 24 h, 24 h
[9] = Homo sapiens, SW-620, 72 h, 72 h
[10] = Homo sapiens, Caco-2, 24 h, 24 h
[11] = Homo sapiens, Caco-2, 72 h, 72 h
[12] = Caco2, 72 h, eugenol 800 µM (E800), cinnamaldehyde 75 µM (A75)

Row | SMILES | concentration affecting cell viability (NCM-460 cell line) [µM] | effect on cell cycle progression (SW-620 cells [1]) | effect on cell cycle progression (Caco-2 cells [2]) | effect on cell cycle progression (NCM-460 cells [3]) | cell death, Annexin V/PI (Caco-2 cells [4]) | Q2-UL cells (upper left quadrant, necrosis) (SW-620 cells [5]) [%] | cell death, Annexin V/PI (SW-620 cells [5]) | cell death, Annexin V/PI (NCM-460 cells [6]) | IC50 (SW-620 cell line; [8]) [µM] | IC50 (SW-620 cell line; [9]) [µM] | Selectivity Index (SW-620 cell line; IC50 NCM460 / IC50 SW620, 24 h) | Selectivity Index (SW-620 cell line; IC50 NCM460 / IC50 SW620, 72 h) | IC50 (SW-620 cell line; 24 h) [µM] | IC50 (SW-620 cell line; 72 h) [µM] | IC50 (Caco-2 cell line; 24 h) [µM] | IC50 (Caco-2 cell line; 72 h) [µM] | IC50 (Caco-2 cell line; [10]) [µM] | IC50 (Caco-2 cell line; [11]) [µM] | Selectivity Index (Caco-2 cell line; IC50 NCM460 / IC50 Caco2, 24 h) | Selectivity Index (Caco-2 cell line; IC50 NCM460 / IC50 Caco2, 72 h) | other results
1 | CC(C)=CCC/C(C)=C/CO [Geraniol] | – | – | – | – | – | – | – | – | – | – | – | – | – | – | – | – | – | – | – | – | effect on cell proliferation, MTT (NCM-460 cell line; NCM-460, 100–800 µM, 48–72 h): increase cell proliferation; effect on cell proliferation, MTT (Caco-2 cell line; Caco-2, 100–800 µM, 72 h): increase cell proliferation; cytotoxic effect, MTT (Caco-2 cell line; human, 72 h, 1000 µM): not on the Caco-2 cells
2 | Cc1ccc(C(C)C)cc1O [carvacrol] | 500 | – | – | – | – | – | – | – | – | – | – | – | – | – | – | – | – | – | – | – | toxicity, MTT (SW-620 cell line; SW-620, 24 and 48 h, up to the maximum tested concentration of 750 μM): no toxicity; cytotoxic effect, MTT (SW-620 cell line; SW-620, 250, 500 and 750 µM, only after 72 h): modest statistically significant toxicity; effect on viability, MTT (Caco-2 cell line; Caco-2, same range of concentrations used by Llana-Ruiz-Cabello and co-workers [19]): reduced Caco-2 cell viability
3 | O=C/C=C/c1ccccc1 [cinnamaldehyde] | – | G1 accumulation | reduction of G2 phase | did not find differences | both late apoptosis and necrosis were detected | 15.98 | both late apoptosis and necrosis were detected | did not induce | 92 | 92 | 2.37 | 0.9 | 92 | 92.1 | 166 | 86.9 | 166 | 87 | 1.31 | 0.96 | IC50 (NCM-460 cell line; Homo sapiens, NCM460, 24 h, NCM-460, MTT, 24 h): 218 µM; IC50 (NCM-460 cell line; Homo sapiens, NCM460, 72 h, NCM-460, MTT, 72 h): 83 µM; IC50 (NCM-460 cell line; NCM-460, MTT, 24 h): 218 µM; IC50 (NCM-460 cell line; NCM-460, MTT, 72 h): 83.2 µM; effect on viability, MTT (SW-620 cell line; SW-620, 75 (µg/mL in the source), any timepoint): reduced viability; effect on viability, MTT (Caco-2 cell line; Caco-2, 75 (µg/mL in the source), 48 and 72 h): reduced viability
4 | C=CCc1ccc(O)c(OC)c1 [eugenol] | – | G1 accumulation | reduction of G2 phase | did not find differences | both late apoptosis and necrosis were detected | 17.12 | both late apoptosis and necrosis were detected | did not induce | 918 | 866 | 1.49 | 1.34 | 918 | 866 | 485 | 730 | 458 | 730 | 2.82 | 1.60 | Q2-UL cells (upper left quadrant, necrosis) (Caco-2 cells [4]; [12]): 25.95%; Q2-UR cells (upper right quadrant, late apoptosis) (Caco-2 cells [4]; [12]): 5.55%; viability at 72 h (in vitro; Caco2, 72 h): 67.5%; viability at 72 h (in vitro; NCM460, 72 h): 95.4%; viability at 72 h (in vitro; SW620, 72 h): 81.3%; IC50 (NCM-460 cell line; Homo sapiens, NCM460, 24 h): 1370 µM; IC50 (NCM-460 cell line; Homo sapiens, NCM460, 72 h): 1160 µM; effect on cell proliferation, MTT (NCM-460 cell line; NCM-460, lower doses from 100 to 400 µM): seemed to stimulate; effect on cell proliferation, MTT (Caco-2 cell line; Caco-2, lower doses from 100 to 400 µM): seemed to stimulate
5 | Cc1ccc(C(C)C)c(O)c1 [thymol] | 165 | – | – | – | – | – | – | – | – | – | – | – | – | – | – | – | – | – | – | – | IC50 (Caco-2 cells [7]): 700 µM; cytotoxic effect, MTT (SW-620 cell line; SW-620, 660 and 1320 µM): cytotoxic effect was also detectable; toxic concentration (SW-620 cell line; SW-620, after 24 h): 660 µM
6 | C=C1CC/C=C(\C)CC[C@@H]2[C@@H]1CC2(C)C [β-caryophyllene] | – | – | – | – | – | – | – | – | – | – | – | – | – | – | – | – | – | – | – | – | effect on viability, MTT (NCM-460 cell line; NCM-460, 240 and 360 µM at 24 h and 120–260 µM at 72 h): affected the viability; effect on viability, MTT (SW-620 cell line; SW-620, 260 µM at 24, 48 and 72 h): affected the viability; effect on cell growth, MTT (Caco-2 cell line; Caco-2): increased cell growth
